Measured values taken from the NIST ThermoML archive (doi:10.1021/je401020e).
± gives the expanded uncertainty stated by the source.

How the values were obtained:
[1] = Liquid; for mass density: 298.15 K, 101.33 kPa, Vibrating tube method; for vapor or sublimation pressure: Closed cell (Static) method
[2] = refractive index (Na D-line) (dimensionless); conditions: 298.15 K; 101.33 kPa; Liquid; Standard Abbe refractometry

Structure (SMILES): OCCOCCO [diethylene glycol]
- mass density [1]: 1112.56 ± 0.12 kg/m3
- vapor or sublimation pressure ([1]; 445.07 K): 10 ± 0.82 kPa
- vapor or sublimation pressure ([1]; 445.47 K): 10 ± 0.81 kPa
- vapor or sublimation pressure ([1]; 464.36 K): 20 ± 1.1 kPa
- vapor or sublimation pressure ([1]; 485.33 K): 40 ± 1.8 kPa
- refractive index [2]: 1.4452 ± 0.0003

Structure (SMILES): OCCCCO [1,4-butanediol]
- mass density [1]: 1013.04 ± 0.05 kg/m3
- vapor or sublimation pressure ([1]; 437.48 K): 10 ± 0.73 kPa
- vapor or sublimation pressure ([1]; 454.63 K): 20 ± 0.99 kPa
- vapor or sublimation pressure ([1]; 473.22 K): 40 ± 1.6 kPa
- refractive index [2]: 1.4449 ± 0.0003

Structure (SMILES): OCCOCCOCCO [triethylene glycol]
- mass density [1]: 1120.7 ± 0.1 kg/m3
- vapor or sublimation pressure ([1]; 480.39 K): 10 ± 0.88 kPa
- vapor or sublimation pressure ([1]; 500.97 K): 20 ± 1.2 kPa
- vapor or sublimation pressure ([1]; 524.64 K): 40 ± 2 kPa
- refractive index [2]: 1.4457 ± 0.0003

Structure (SMILES): OCCO [1,2-ethanediol]
- mass density [1]: 1107.92 ± 0.09 kg/m3
- vapor or sublimation pressure ([1]; 405.97 K): 10 ± 0.73 kPa
- vapor or sublimation pressure ([1]; 406.07 K): 10 ± 0.73 kPa
- vapor or sublimation pressure ([1]; 423.18 K): 20 ± 0.99 kPa
- vapor or sublimation pressure ([1]; 441.92 K): 40 ± 1.6 kPa
- refractive index [2]: 1.4312 ± 0.0003
